Experimental data as given in paper PMC6781459, “The study of antimicrobial, anti-cancer, anti-inflammatory and α-glucosidase inhibitory activities of Nigronapthaphenyl, isolated from an extract of Nigrospora sphaerica” (Mycology, 2019).

Biological target: α-glucosidase
Assay: α-glucosidase inhibition assay (no method or enzyme source described)
Format: biochemical

COc1cc(OC)c2cc(C(=O)c3ccccc3)ccc2c1OC [Nigronapthaphenyl]
IC50: 6.9 ± 0.5 µM
